Measured values: BindingDB's records for patent US20250066353 (Athos Therapeutics, 2025)

Biological target: T1, Pantetheinase (Homo sapiens, UniProt O95497)
T1 sequence (O95497 whole entry): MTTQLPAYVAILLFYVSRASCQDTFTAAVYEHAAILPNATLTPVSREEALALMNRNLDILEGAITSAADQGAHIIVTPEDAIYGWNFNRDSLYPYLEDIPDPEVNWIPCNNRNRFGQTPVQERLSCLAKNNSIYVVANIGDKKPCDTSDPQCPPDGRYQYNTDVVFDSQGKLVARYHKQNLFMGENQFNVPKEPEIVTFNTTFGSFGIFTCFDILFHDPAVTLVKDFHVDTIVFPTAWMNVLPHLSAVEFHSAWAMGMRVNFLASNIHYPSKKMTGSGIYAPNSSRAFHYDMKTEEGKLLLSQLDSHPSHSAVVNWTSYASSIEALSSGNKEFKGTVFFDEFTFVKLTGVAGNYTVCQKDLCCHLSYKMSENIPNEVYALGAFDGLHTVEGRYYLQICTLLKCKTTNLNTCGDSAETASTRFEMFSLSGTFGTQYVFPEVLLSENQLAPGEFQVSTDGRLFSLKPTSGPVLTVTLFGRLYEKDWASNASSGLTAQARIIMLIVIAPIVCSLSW
Assay: VNN1 Inhibitor Binding Assay
Procedure: 5 μL of 3× (45 μM) of Pantothenate-AMC to achieve final concentrations of 15 μM (0.25% DMSO final) were added in a 384 well assay plate followed by the addition of 5 μL of 3× the desired concentration of the tested compounds (Compound 1; Compound 2; and RR6) in 0.75% DMSO to designated wells (0.25% of DMSO final). The range of the compound concentrations tested was 10, 3.33, 1.11, 0.37, 0.12, 0.04, 0.01, 0.0046, 0.001, and 0.0005 μM. 5 μL of 0.75% DMSO were also added to positive and negative control wells.5 μL of 1.4 ng/μL Vanain-1 was added to the assay plate to achieve a final amount of 7 ng/well, and covered with plate sealer. Another 5 μL of assay buffer was added to negative controls and the assay plate was then centrifuged briefly (1000 rpm for 30 s) in a plate centrifuge. The assay plate was incubated in the dark for 20 minutes at room temperature and immediately read on an Envision 2105, PerkinElmer multimode plate reader.The fluorescence read was captured at excitation wavelength of 355 nm and emission wavelength of 460 nm.

IC50: > 10 µM
Structure (SMILES): CC(=O)NCCN1Cc2nc(NCc3cncc(C#N)c3)ccc2C1=O [US20250066353, Compound 41]
